This note sets out measurements from ChEMBL document CHEMBL1201862, “PubChem BioAssay data set” (2004).

The structures appear in SMILES notation.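 Protocol summary: plate cells (96-well), add compound at 5 concentrations, incubate 48 h, interpolate endpoints linearly. GI50 = concentration required for 50% inhibition of growth.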 The source made the active and inactive calls. Cut-off read from the data, not from the text of the source: active = GI50 up to about 1.1 µM and inactive = higher.

Common to all, as to assay: NCI anticancer screen, dose series, 48 h
The subject of assay [1] is CAKI-1.
In assay [2] the test system is CCRF-CEM.
For assay [3], the system named is HCT-116.
Assay [4] has as its system HL-60.
The test system of assay [5] is HOP-62.
The test system of assay [6] is HT-29.
In assay [7] the test system is K562.
Assay [8] relates to MCF7.
Assay [9] concerns NCI-H226.
The test system of assay [10] is SF-295.
Assay [11] has as its system SK-MEL-2.
In assay [12] the test system is SNB-19.
For assay [13], the system named is SNB-75.
Assay [14] concerns SR.
The subject of assay [15] is TK-10.
The subject of assay [16] is U-251.
Assay [17] concerns HOP-92.
Assay [18] concerns NCI/ADR-RES.
The test system of assay [19] is SK-OV-3.

Take `N#Cc1c(N)nc(S)c(C#N)c1-c1ccccc1`: the GI50 in assay [1] is 88.1 µM (inactive); in assay [2] it was > 100 µM (inactive); in assay [3] it was > 100 µM (inactive); in [4], > 100 µM (inactive); in assay [5], > 100 µM (inactive); in assay [6], > 100 µM (inactive). For the same compound, the GI50 in [7] was > 100 µM (inactive); in assay [8] it was > 100 µM (inactive); in [9], > 100 µM (inactive); in assay [10], > 100 µM (inactive); in assay [11], 82.4 µM (inactive); in assay [12], > 100 µM (inactive). In addition, the GI50 in [13] was 58.3 µM (inactive); in assay [14], > 100 µM (inactive); in assay [15] it was > 100 µM (inactive); in [16], > 100 µM (inactive).

On to `Oc1ccc2ccccc2c1NCn1nc(CCCCCCCCc2nn(CNc3c(O)ccc4ccccc34)c(=S)o2)oc1=S`, for which the GI50 in assay [1] is > 100 µM (inactive); in [3], 6.49 µM (inactive); in assay [5] it was > 100 µM (inactive); in assay [17], > 100 µM (inactive); in [6] it was 25.5 µM (inactive); in assay [7], > 100 µM (inactive). Besides, the GI50 in [8], in [9], in [18], in assay [10], in assay [11] and in assay [19] was > 100 µM (inactive) each time. The GI50 in assay [12], in [13], in assay [15] and in assay [16] was > 100 µM (inactive) in each case.

As for `CC(=O)c1cccc(Nc2nc3ccc(Cl)cc3c3[nH]c4ccccc4c23)c1`, the GI50 in [1] is 3.03 µM (inactive); in assay [2], 27.4 µM (inactive); in assay [3] it was 3.85 µM (inactive); in assay [5], 4.17 µM (inactive); in assay [17], 3.48 µM (inactive); in [6], 6.21 µM (inactive). In addition, the GI50 is 1.41 µM (inactive) in assay [7]; 0.434 µM (active) in assay [8]; 4.38 µM (inactive) in assay [18]; 2.45 µM (inactive) in [10]; 3.36 µM (inactive) in [11]; 4.15 µM (inactive) in [19]. Further, the figures for the GI50 in assay [12], in assay [15] and in assay [16] were 10.5 µM (inactive), 4.81 µM (inactive) and 2.12 µM (inactive), respectively.

`CC1=CC2C(O1)C1C(=O)C=CC(=O)C1=CC2[N+](=O)[O-]` (configuration not stated): the GI50 was 5.01 µM (inactive) in assay [1]; 3.85 µM (inactive) in [2]; 13.8 µM (inactive) in assay [3]; 8.11 µM (inactive) in [4]; 21 µM (inactive) in [5]; 2.14 µM (inactive) in assay [17]. Moreover, the GI50 was 16.5 µM (inactive) in assay [6]; 7.67 µM (inactive) in assay [7]; 6.75 µM (inactive) in assay [8]; > 100 µM (inactive) in [9]; 25.5 µM (inactive) in assay [18]; 18.7 µM (inactive) in [10]. Besides, the GI50 in assay [11] was 23.3 µM (inactive); in assay [19], > 100 µM (inactive); in assay [12], 34.6 µM (inactive); in [13], 26.7 µM (inactive); in [15], 16.1 µM (inactive); in assay [16], 18.5 µM (inactive).

Take `CCOC(=O)c1c(N)nn2c1cc1cccccc12`: the GI50 was 27.9 µM (inactive) in assay [1]; 43.5 µM (inactive) in [2]; 33.5 µM (inactive) in assay [3]; 32.5 µM (inactive) in assay [4]; 29.8 µM (inactive) in [5]; 33.5 µM (inactive) in assay [17]. For the same compound, the GI50 in [6] was 36.2 µM (inactive); in assay [8] it was 16 µM (inactive); in assay [18], 25.9 µM (inactive); in [10], 25.1 µM (inactive); in assay [11], 19.1 µM (inactive); in assay [19], 26.8 µM (inactive). Besides, the GI50 in assay [12] is 40.7 µM (inactive); in assay [15], 19.5 µM (inactive); in assay [16], 24 µM (inactive).

With `CCON1CC(C(=O)OC)=C(O)C1=O`, the GI50 in assay [1], in [3], in assay [5], in assay [17], in assay [6] and in assay [7] was > 100 µM (inactive) in each case. The GI50 in [8], in assay [18], in assay [10], in assay [11], in assay [19] and in assay [12] was > 100 µM (inactive) throughout. Moreover, the GI50 in assay [13], in assay [15] and in assay [16] was > 100 µM (inactive) throughout.

On to `COc1ccccc1C(=O)c1c(N2CCCCC2)c(=O)c1=O`, for which the GI50 in assay [1], in assay [2], in assay [3], in assay [4], in [5] and in assay [17] was > 100 µM (inactive) in each case. The GI50 in assay [6], in assay [7], in [8], in [9], in [18] and in assay [10] was > 100 µM (inactive) throughout. The GI50 in [11], in [19], in [12], in assay [13], in [15] and in assay [16] was > 100 µM (inactive) each time.

Regarding `CCCCN1C(=O)N(c2ccc(OCC)cc2)C2N(CCCC)C1C(C)(C)C2(C)C` (configuration not stated), the GI50 is 26.3 µM (inactive) in [1]; 16.3 µM (inactive) in assay [2]; 31.6 µM (inactive) in assay [3]; 35.9 µM (inactive) in assay [5]; 23.5 µM (inactive) in assay [17]; 38.5 µM (inactive) in assay [6]. Also, the GI50 in [8] was 15.3 µM (inactive); in assay [9], 20.2 µM (inactive); in assay [18], 23.5 µM (inactive); in assay [10], 47.4 µM (inactive); in [11], 31.6 µM (inactive); in [19] it was 19.2 µM (inactive). Further, the GI50 was 35.6 µM (inactive) in assay [12], 37.3 µM (inactive) in assay [13], 22.5 µM (inactive) in [15] and 37 µM (inactive) in [16].

With `CC(=O)c1ccc2c3c1O[C@H]1c4[nH]c5ccccc5c4C[C@@]4(O)[C@@H](C2)N(CC2CC2)CC[C@]314`, the GI50 in [1] is 20 µM (inactive); in [2] it was 2.06 µM (inactive); in [3] it was 15.5 µM (inactive); in [4], 16.1 µM (inactive); in [5], 21 µM (inactive); in [17], 14.5 µM (inactive). Besides, the GI50 in assay [6] is 4.13 µM (inactive); in assay [7], 16.8 µM (inactive); in assay [8] it was 16.7 µM (inactive); in [9], 17.1 µM (inactive); in assay [18] it was 8.67 µM (inactive); in assay [10] it was 15.6 µM (inactive). Besides, the GI50 is 16.6 µM (inactive) in assay [11]; 20.1 µM (inactive) in assay [19]; 0.573 µM (active) in [12]; 18.2 µM (inactive) in assay [15]; 12.2 µM (inactive) in assay [16].

On to `Cn1c(N=P(c2ccccc2)(c2ccccc2)c2ccccc2)c([N+](=O)[O-])c(=O)n(C)c1=O`, for which the GI50 in assay [1] was > 100 µM (inactive); in assay [2], 20.2 µM (inactive); in [3], 36.6 µM (inactive); in assay [5], 48 µM (inactive); in assay [17], > 100 µM (inactive); in assay [6], 44.5 µM (inactive). In addition, the GI50 was 16.2 µM (inactive) in [7]; 42.3 µM (inactive) in assay [8]; > 100 µM (inactive) in assay [9]; 89.9 µM (inactive) in assay [18]; 53 µM (inactive) in assay [10]; 17.4 µM (inactive) in assay [11]. Further, the GI50 was > 100 µM (inactive) in assay [19]; > 100 µM (inactive) in [12]; 25.5 µM (inactive) in assay [13]; 67.9 µM (inactive) in assay [15]; 66.2 µM (inactive) in assay [16].

Regarding `O=C1C(Cl)=C(NCCN2CCOCC2)C(=O)c2ncccc21`, the GI50 in [2] was 0.394 µM (active); in assay [3] it was 1.82 µM (inactive); in [5] it was 2.12 µM (inactive); in assay [17], 2.25 µM (inactive); in assay [6], 2.96 µM (inactive); in assay [7], 0.378 µM (active). Also, the GI50 in assay [8] is 1.66 µM (inactive); in assay [9] it was 2.1 µM (inactive); in assay [10], 1.82 µM (inactive); in assay [19], 1.95 µM (inactive); in assay [12] it was 1.69 µM (inactive); in [13] it was 1.35 µM (inactive). The GI50 is 1.96 µM (inactive) in assay [15] and 1.66 µM (inactive) in assay [16].

With `N=C(N)SCCSC(=N)N`, the GI50 in assay [1], in assay [3], in assay [5], in assay [17], in assay [6] and in assay [7] was > 100 µM (inactive) in each case. In addition, the GI50 in [8], in assay [9], in assay [18], in assay [10], in assay [19] and in assay [12] was > 100 µM (inactive) in each case. In addition, the GI50 in assay [13], in assay [15] and in assay [16] was > 100 µM (inactive) throughout.
